One substance from article PMC4268911 (International Journal of Nanomedicine, 2014) can be followed below.

For one data set, the system named is MCF-7 cells. Kind of data set: In vitro cytotoxicity of conjugate, MTS-based assay. The data set is classed as cell-based, human. As to conditions: MCF-7, 0–200 μg mL−1 polymer, 24 hours.
The next data set relates to MDAMB 231 cells. The description is as above. The data set is classed as cell-based, human. As to conditions: MDAMB 231, 0–200 μg mL−1 polymer, 24 hours.

For Low-molecular-weight heparin [LMWH], the “cytotoxicity (cell viability)” value with MCF-7 cells and with MDAMB 231 cells was “no severe in vitro cytotoxicity” throughout.
